Measurements from patent US20260167935A1, “METHOD FOR CULTURING TONSIL-DERIVED MESENCHYMAL STEM CELLS USING N-ACETYLCYSTEINE (NAC)” (priority 2023, published 2026).

How the values were obtained:
[1] = tested on: tonsil-derived human MSCs; test: Cell viability after NAC pretreatment for 24 hours (determination of NAC pretreatment concentration); details: NAC 10 mM, FIG. 1
Protocol: In order to determine the concentration of NAC for pretreatment of tonsil-derived human MSCs, the tonsil-derived human MSCs were pretreated with NAC prepared in Example 1 at concentrations of 2, 4, 6, 8, 10, 15, and 100 mM for 24 hours, and then cell viability was evaluated.

[2] = tested on: tonsil-derived human MSCs (hMSC-T, passage 6); test: Antioxidant activity (ROS assay) upon NAC pretreatment followed by PYBR treatment; assay type: cell-based; details: NAC pretreatment 10 mM and 20 mM for 24 hours, then PYBR 5, 10, 20 μg/mL for 24 hours; FIG. 5
Protocol: In order to evaluate antioxidant activity upon NAC treatment, tonsil-derived human MSCs (hMSC-T, passage 6) were seeded in a culture medium at a density of 1×10^4 cells/well. On the following day, NAC was treated at concentrations of 10 mM and 20 mM for 24 hours. Thereafter, the cells were washed with PBS and the medium was replaced, followed by treatment with PYBR at concentrations of 5, 10, and 20 μg/mL. After 24 hours, the cells were washed three times with PBS and incubated in 100 μL of ROS working solution at 37° C. for 30 minutes in the dark. Absorbance was then measured at 488/525 nm (FIG. 4). A group not treated with NAC was used as a positive control.

[3] = tested on: tonsil-derived human MSCs (hMSC-T, passage 6); test: Cell viability (WST, absorbance at 450 nm) upon NAC pretreatment followed by PYBR treatment; assay type: cell-based; details: NAC pretreatment 10 mM and 20 mM for 24 hours, then PYBR 5, 10, 20 μg/mL for 24 hours; FIG. 3
Protocol: In order to evaluate cell viability upon NAC treatment, tonsil-derived human MSCs (hMSC-T, passage 6) were seeded in a culture medium at a density of 1×10^3 cells/well. On the following day, NAC was treated at concentrations of 10 mM and 20 mM for 24 hours. Thereafter, the cells were washed with PBS and the medium was replaced, followed by treatment with PYBR at concentrations of 5, 10, and 20 μg/mL. After 24 hours, the cells were washed three times with PBS and transferred to fresh medium (100 μL) containing 10 μL of WST solution, and incubated at 37° C. for 2 hours in the dark. Absorbance at 450 nm was then measured to evaluate cell viability (FIG. 2). A group not treated with NAC was used as a positive control.

CC(=O)NC(CS)C(=O)O (stereo not drawn) [NAC, 2-acetamido-3-sulfanylpropanoic acid]
cytotoxicity (cell viability) [1]: no cytotoxicity was observed | ROS levels after PYBR treatment [2]: significantly reduced ROS levels | cell viability after PYBR treatment [3]: significantly restored cell viability
